Legend:
Experiment in all cases: relative viability (nuclei count vs DMSO), 5 days (fraction); higher = more cells survive
CUDC-101 + Navitoclax = compound: C#Cc1cccc(Nc2ncnc3cc(OC)c(OCCCCCCC(=O)NO)cc23)c1 [CUDC-101] + CC1(C)CCC(c2ccc(Cl)cc2)=C(CN2CCN(c3ccc(C(=O)NS(=O)(=O)c4ccc(N[C@H](CCN5CCOCC5)CSc5ccccc5)c(S(=O)(=O)C(F)(F)F)c4)cc3)CC2)C1 [Navitoclax] (partner 0.5 µM)
Procedure, shortened: (§1)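 Cells from lung cancer lines were seeded into 1536-well plates and, one day later, dosed by pin tool. Treatments were either a single drug or a fixed dose of an anchor drug with five library-drug doses (not always all listed) in √10 steps. After 5 days, nuclei were stained in a one-step fixation (final 0.05% Triton X-100, 1% formaldehyde, 1 ug/ml Hoechst) and counted on 4× images, and relative viability is the treated-to-vehicle nuclei ratio, as the median of duplicate plates.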

CUDC-101 + Trametinib = compound: C#Cc1cccc(Nc2ncnc3cc(OC)c(OCCCCCCC(=O)NO)cc23)c1 [CUDC-101] + CC(=O)Nc1cccc(-n2c(=O)n(C3CC3)c(=O)c3c(Nc4ccc(I)cc4F)n(C)c(=O)c(C)c32)c1 [Trametinib] (partner 0.02 µM)
Procedure, shortened: as §1

NVP-TAE684 + Palbociclib = compound: COc1cc(N2CCC(N3CCN(C)CC3)CC2)ccc1Nc1ncc(Cl)c(Nc2ccccc2S(=O)(=O)C(C)C)n1 [NVP-TAE684] + CC(=O)c1c(C)c2cnc(Nc3ccc(N4CCNCC4)cn3)nc2n(C2CCCC2)c1=O [Palbociclib] (partner 0.5 µM)
Procedure, shortened: as §1

Row | Cell Line | relative viability (CUDC-101 + Navitoclax; first compound 0.01 µM) | relative viability (CUDC-101 + Navitoclax; first compound 0.03162 µM) | relative viability (CUDC-101 + Navitoclax; first compound 0.1 µM) | relative viability (CUDC-101 + Navitoclax; first compound 0.3162 µM) | relative viability (CUDC-101 + Navitoclax; first compound 1 µM) | relative viability (CUDC-101 + Trametinib; first compound 0.01 µM) | relative viability (CUDC-101 + Trametinib; first compound 0.03162 µM) | relative viability (CUDC-101 + Trametinib; first compound 0.1 µM) | relative viability (CUDC-101 + Trametinib; first compound 0.3162 µM) | relative viability (CUDC-101 + Trametinib; first compound 1 µM) | relative viability (NVP-TAE684 + Palbociclib; first compound 0.2 µM) | relative viability (NVP-TAE684 + Palbociclib; first compound 0.6325 µM) | relative viability (NVP-TAE684 + Palbociclib; first compound 2 µM)
1 | LCLC-97TM1 | 0.416 | 0.304 | 0.593 | 0.377 | 0.306 | 0.175 | 0.193 | 0.223 | 0.227 | 0.164 | 0.251 | 0.249 | 0.0774
2 | EPLC-272H | 1.42 | 1.2 | 1.15 | 0.871 | 0.59 | 0.279 | 0.258 | 0.26 | 0.265 | 0.229 | 0.324 | 0.321 | 0.27
3 | CAL-12T | 1.22 | 1.23 | 1.28 | 1.35 | 1.33 | 0.311 | 0.381 | 0.373 | 0.41 | 0.335 | 0.357 | 0.344 | 0.186
4 | NCI-H1755 | 0.984 | 1.01 | 0.995 | 1.02 | 0.951 | 0.794 | 0.761 | 0.784 | 0.792 | 0.812 | 0.441 | 0.472 | 0.401
5 | H3255 | 0.688 | 0.435 | 0.174 | 0.126 | 0.0597 | 0.596 | 0.536 |  | 0.445 | 0.209 | 0.324 | 0.299 | 0.296
6 | NCI-H441 | 0.875 | 0.57 | 0.545 | 0.795 | 0.392 | 0.639 | 0.439 | 0.371 | 0.65 | 0.41 | 0.182 | 0.192 | 0.154
7 | NCI-H1793 | 0.426 | 0.319 | 0.417 | 0.406 | 0.35 | 0.331 | 0.347 | 0.349 | 0.427 | 0.44 | 0.297 | 0.302 | 0.239
8 | LK-2 | 0.927 | 0.826 | 0.819 | 0.741 | 0.415 | 0.715 | 0.625 | 0.884 | 0.592 | 0.392 | 0.614 | 0.756 | 0.296
9 | SW 1573 | 1.2 | 0.897 | 0.951 | 1.23 | 0.901 | 0.638 | 0.5 | 0.599 | 0.592 | 0.392 | 0.414 | 0.294 | 0.169
10 | HCC-78 | 0.76 | 0.706 | 0.846 | 0.684 | 0.391 | 0.781 | 0.711 | 0.864 | 0.667 | 0.545 | 0.487 | 0.388 | 0.479
11 | SK-MES-1 | 1.27 | 1.37 | 1.28 | 1.16 | 1.12 | 0.488 | 0.488 | 0.493 | 0.431 | 0.319 | 0.347 | 0.313 | 0.296
12 | NCI-H2023 | 1.02 | 0.983 | 0.993 | 1 | 0.964 | 0.615 | 0.542 | 0.578 | 0.551 | 0.428 | 0.291 | 0.358 | 0.116
13 | ChaGo-K-1 | 1.34 | 1.48 | 1.04 | 1.06 | 0.92 | 0.958 | 0.898 | 0.909 | 0.87 | 0.784 | 1.04 |  | 0.7
14 | NCI-H2126 | 0.889 | 0.86 | 0.852 | 0.815 | 0.649 | 0.552 | 0.545 | 0.56 | 0.522 | 0.415 | 0.34 | 0.329 | 0.327
15 | RERF-LC-KJ | 1.17 | 1.07 | 1.21 | 1.17 | 0.666 | 0.908 | 0.955 | 0.865 | 0.775 | 0.672 | 1.14 | 1.11 | 0.907
16 | NCI-H3122 | 0.982 | 0.987 | 1.06 | 1.05 | 1.06 | 0.201 | 0.224 | 0.198 | 0.243 | 0.228 | 0.103 | 0.0833 | 0.0801
17 | NCI-H322M | 1.21 | 1.18 | 0.954 | 1.08 | 0.795 | 0.507 | 0.477 | 0.517 | 0.44 | 0.411 | 0.425 | 0.43 | 0.375
18 | NCI-H647 | 1.2 | 1.01 | 1.11 | 1.09 | 0.844 | 0.461 | 0.411 | 0.543 | 0.538 | 0.443 | 0.352 | 0.337 | 0.223
19 | EMC-BAC-2 | 1.15 | 1.19 | 1.19 | 1.1 | 0.923 | 0.918 | 0.811 | 0.864 | 0.779 | 0.479 | 0.483 | 0.499 | 0.357
20 | PC-14 | 1.08 | 1.05 | 1.06 | 0.754 | 0.265 | 0.928 | 0.605 | 0.619 | 0.233 | 0.0423 | 0.434 | 0.398 | 0.0888
21 | 201T | 1.18 | 1.17 | 1.16 | 1.2 | 1.21 | 0.734 | 0.711 | 0.714 | 0.69 | 0.701 | 0.358 | 0.333 | 0.312
22 | LXF-289 | 0.952 | 0.966 | 0.911 | 0.932 | 0.753 | 0.689 | 0.671 | 0.659 | 0.605 | 0.539 | 0.56 | 0.618 | 0.643
